Measurements from ChEMBL document CHEMBL1144939, “Modeling the adenosine receptors: comparison of the binding domains of A2A agonists and antagonists” (J Med Chem, 2003).

Tests used:
[1] = molecular target: Adenosine receptor A2a (Homo sapiens, UniProt P29274, S277E); test: biochemical
[2] = molecular target: Adenosine receptor A2a (Homo sapiens, UniProt P29274, H278E); test: biochemical
[3] = molecular target: Adenosine receptor A2a (Homo sapiens, UniProt P29274, T88D); test: Binding affinity against T88D human adenosine A2A receptor expressed in CHO cells using [3H]- ZM-241385; assay type: cell-based
Chain of Adenosine receptor A2a (Homo sapiens, UniProt P29274, T88D) (P29274 whole entry T88D): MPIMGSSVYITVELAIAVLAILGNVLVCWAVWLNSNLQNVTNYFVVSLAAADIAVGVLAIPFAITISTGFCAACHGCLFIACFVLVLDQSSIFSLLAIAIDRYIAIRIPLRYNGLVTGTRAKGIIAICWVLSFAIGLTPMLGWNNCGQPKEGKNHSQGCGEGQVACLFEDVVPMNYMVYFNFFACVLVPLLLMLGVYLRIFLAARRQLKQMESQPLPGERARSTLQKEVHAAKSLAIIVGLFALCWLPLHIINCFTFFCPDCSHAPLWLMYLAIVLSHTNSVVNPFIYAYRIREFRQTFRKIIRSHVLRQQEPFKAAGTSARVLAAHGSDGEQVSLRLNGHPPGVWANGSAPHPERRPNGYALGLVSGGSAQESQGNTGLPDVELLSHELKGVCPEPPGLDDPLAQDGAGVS

[4] = molecular target: Adenosine receptor A2a (Homo sapiens, UniProt P29274, T88E); test: Binding affinity against T88E human adenosine A2A receptor expressed in CHO cells using [3H]- ZM-241385; assay type: cell-based
Chain of Adenosine receptor A2a (Homo sapiens, UniProt P29274, T88E) (P29274 whole entry T88E): as the sequence (P29274 whole entry T88D) above, with D88E counted along it

[5] = molecular target: Adenosine receptor A2a (Homo sapiens, UniProt P29274, H278D); test: biochemical
Chain of Adenosine receptor A2a (Homo sapiens, UniProt P29274, H278D) (P29274 whole entry H278D): as the sequence (P29274 whole entry T88D) above, with D88T, H278D counted along it

[6] = molecular target: Adenosine receptor A2a (Homo sapiens, UniProt P29274); test: biochemical
Chain of Adenosine receptor A2a (Homo sapiens, UniProt P29274) (P29274 whole entry): as the sequence (P29274 whole entry T88D) above, with D88T counted along it
Description: Binding affinity against WT human adenosine A2A receptor expressed in CHO cells using [3H]- ZM-241385

[7] = molecular target: Adenosine receptor A2a (Homo sapiens, UniProt P29274, Q89D); test: biochemical
Chain of Adenosine receptor A2a (Homo sapiens, UniProt P29274, Q89D) (P29274 whole entry Q89D): as the sequence (P29274 whole entry T88D) above, with D88T, Q89D counted along it

[8] = molecular target: Adenosine receptors; A1 & A2a (Homo sapiens) (UniProt P30542+P29274); test: Selectivity ratio for binding to human adenosine A1 and A2A receptors; assay type: protein assay

Chain of Adenosine receptor A2a (Homo sapiens, UniProt P29274, S277E) (P29274 whole entry S277E): as the sequence (P29274 whole entry T88D) above, with D88T, S277E counted along it
Chain of Adenosine receptor A2a (Homo sapiens, UniProt P29274, H278E) (P29274 whole entry H278E): as the sequence (P29274 whole entry T88D) above, with D88T, H278E counted along it

| Ki [1] | Ki [2] | Ki [3] | Ki [4] | Ki [5] | Ki [6] | Ki [7] | Ratio [8] | SMILES |
| --- | --- | --- | --- | --- | --- | --- | --- | --- |
| 67 µM | 56 µM | 6.5 µM | 64 µM | 59 µM | 0.079 µM | 58 µM |  | NC[C@H]1[C@@H](O)[C@H](n2cnc3c(NCc4cccc(I)c4)ncnc32)O[C@@H]1CO |
|  |  |  |  |  |  |  | 9820 | Nc1ccc(CCCn2ncc3c2nc(N)n2nc(-c4ccco4)nc32)cc1 |
| 604 µM |  | 407 µM | 492 µM |  | 0.534 µM | 52 µM |  | NC[C@H]1O[C@@H](n2cnc3c(N)ncnc32)[C@H](O)[C@@H]1O |
| 88 µM | 64 µM | 18 µM | 57 µM | 87 µM | 0.067 µM | 6.4 µM |  | N[C@H]1[C@@H](O)[C@H](n2cnc3c(NCc4cccc(I)c4)ncnc32)O[C@@H]1CO |
